Results: US20260200928A1, “THERAPEUTIC COMPOUNDS” (Sanofi, priority 2022, published 2026)

Biological target: T1, human IL-17A (Homo sapiens, UniProt Q16552)
T1 construct: purchased R&D Systems 7955-IL/CF
T1 sequence (Q16552 24-155): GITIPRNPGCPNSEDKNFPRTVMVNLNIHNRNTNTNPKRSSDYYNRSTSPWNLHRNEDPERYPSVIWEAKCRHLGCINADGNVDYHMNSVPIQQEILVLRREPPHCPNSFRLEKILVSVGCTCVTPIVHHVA
Test: IL-17A AlphaLISA competition assay (block of IL-17A binding to its receptor IL-17RA)
Settings: mean IC50 (n≥2), block of IL-17A binding to IL-17RA
Summary of the method: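 Human recombinant IL-17A (7.5 nM stock) pre-incubated 30 min at RT with compound, then IL-17RA/Fc (5 nM stock) added for 90 min; AlphaLISA read with anti-Fc acceptor beads, biotinylated anti-IL-17A antibody (5 nM) and streptavidin donor beads (3 h, dark). IC50 from 4-parameter logistic fit, normalised to DMSO and 4 μM reference inhibitor; n≥2.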

IC50 | SMILES
29 nM | CCc1conc1C(=O)N[C@H](C(=O)Nc1cc([C@@H](COC)N2C[C@@H](C(F)(F)F)NC2=O)ccn1)[C@H]1CCCC(F)(F)C1 (single isomer, unassigned) [Example 305]
134 nM | COCC(c1ccnc(NC(=O)[C@@H](NC(=O)c2nonc2C)[C@H]2CC[C@H](C)CC2)c1)N1C[C@@H](C(F)(F)F)NC1=O (single isomer, unassigned) [Example 75]
229 nM | CC(C)n1nccc1C(=O)NC(C(=O)Nc1cc(C(NC(=O)CCC(F)(F)F)C2CC2)ccn1)C1CCC(F)(F)CC1 (centres unmarked) [Example 48, N-(2-((4-(cyclopropyl(4,4,4-trifluorobutanamido)methyl)pyridin-2-yl)amino)-1-(4,4-difluorocyclohexyl)-2-oxoethyl)-1-isopropyl-1H-pyrazole-5-carboxamide]
689 nM | CCc1nocc1C(=O)N[C@H](C(=O)Nc1cc(O[C@H]2C[C@@H](C(F)(F)F)NC2=O)ccn1)[C@H]1CC[C@H](C)CC1 [Example 321, 3-ethyl-N—((S)-1-((1r,4S)-4-methylcyclohexyl)-2-oxo-2-((4-(((3S,5S)-2-oxo-5-(trifluoromethyl)pyrrolidin-3-yl)oxy)pyridin-2-yl)amino)ethyl)isoxazole-4-carboxamide]
14900 nM | CC(C)(C)OC(=O)N[C@H](C(=O)Nc1cc(CN2C(=O)NC(C)(C)C2=O)ccn1)C1CCC(F)(F)CC1 [Example 27, Tert-butyl (S)-(1-(4,4-difluorocyclohexyl)-2-((4-((4,4-dimethyl-2,5-dioxoimidazolidin-1-yl)methyl)pyridin-2-yl)amino)-2-oxoethyl)carbamate]
8400 nM | CC(C)(C)OC(=O)N[C@H](C(=O)Nc1cc(CN2C(=O)CNC2=O)ccn1)C1CCC(F)(F)CC1 [Example 28, Tert-butyl (S)-(1-(4,4-difluorocyclohexyl)-2-((4-((2,5-dioxoimidazolidin-1-yl)methyl)pyridin-2-yl)amino)-2-oxoethyl)carbamate]
16 nM | CC1CCC(C(NC(=O)c2ccnn2C)C(=O)Nc2cc(C(C)N3CC(C(F)(F)F)NC3=O)ccn2)CC1 [Example 240, 1-methyl-N-((S)-1-((1r,4S)-4-methylcyclohexyl)-2-oxo-2-((4-((R)-1-((S)-2-oxo-4-(trifluoromethyl)imidazolidin-1-yl)ethyl)pyridin-2-yl)amino)ethyl)-1H-pyrazole-5-carboxamide]
20 nM | CCn1nccc1C(=O)N[C@H](C(=O)Nc1cc(C(COC)N2C[C@@H](C(F)(F)F)NC2=O)ccn1)[C@H]1CC[C@H](C)CC1 (single isomer, unassigned) [Example 124]
38 nM | CCn1nccc1C(=O)N[C@H](C(=O)Nc1cc([C@@H](COC)N2C[C@@H](C(F)(F)F)NC2=O)ccn1)C1CCC(C(F)(F)F)CC1 (stereo partly drawn) [Example 301, 1-ethyl-N-((1S)-2-((4-((S)-2-methoxy-1-((S)-2-oxo-4-(trifluoromethyl)imidazolidin-1-yl)ethyl)pyridin-2-yl)amino)-2-oxo-1-(4-(trifluoromethyl)-cyclohexyl)ethyl)-1H-pyrazole-5-carboxamide]
38 nM | COCC(NC(=O)CCC(F)(F)F)c1ccnc(NC(=O)C(NC(=O)c2nonc2C2CC2)C2CCC(C)CC2)c1 [Example 243, 4-cyclopropyl-N-((1S)-2-((4-(2-methoxy-1-(4,4,4-trifluorobutanamido)ethyl)pyridin-2-yl)amino)-1-((1r,4S)-4-methylcyclohexyl)-2-oxoethyl)-1,2,5-oxadiazole-3-carboxamide]
135 nM | Cn1nccc1C(=O)N[C@H](C(=O)Nc1cc(C[C@H]2C[C@@H](C(F)(F)F)NC2=O)ccn1)C1CCC(F)(F)CC1 [Example 224, N-((S)-1-(4,4-difluorocyclohexyl)-2-oxo-2-((4-(((3S,5S)-2-oxo-5-(trifluoromethyl)pyrrolidin-3-yl)methyl)pyridin-2-yl)amino)ethyl)-1-methyl-1H-pyrazole-5-carboxamide]
33 nM | COCC(c1ccnc(NC(=O)C(NC(=O)C(F)(F)c2cnccn2)C2CCC(C)CC2)c1)N1CC(C(F)(F)F)NC1=O (single isomer, unassigned) [Example 251]
25400 nM | Cn1nccc1C(=O)NC(C(=O)Nc1cc(Cc2cccc(=O)n2C)ccn1)C1CCC(F)(F)CC1 (centres unmarked) [Example 37, N-(1-(4,4-difluorocyclohexyl)-2-((4-((1-methyl-6-oxo-1,6-dihydropyridin-2-yl)methyl)pyridin-2-yl)amino)-2-oxoethyl)-1-methyl-1H-pyrazole-5-carboxamide]
71 nM | CCn1nccc1C(=O)N[C@H](C(=O)Nc1cc([C@@H](COC)N2C[C@@H](C(F)(F)F)NC2=O)ccn1)C1CCC(Cl)CC1 (stereo partly drawn) [Example 310, N-((1S)-1-(4-chlorocyclohexyl)-2-((4-((S)-2-methoxy-1-((S)-2-oxo-4-(trifluoromethyl)imidazolidin-1-yl)ethyl)pyridin-2-yl)amino)-2-oxoethyl)-1-ethyl-1H-pyrazole-5-carboxamide]
47 nM | CCn1nccc1C(=O)NC(C(=O)Nc1cc(C(COC)NC(=O)CCC(F)(F)F)ccn1)C1CCC(C)CC1 [Example 244, 1-ethyl-N-((1S)-2-((4-(2-methoxy-1-(4,4,4-trifluorobutanamido)ethyl)pyridin-2-yl)amino)-1-((1r,4S)-4-methylcyclohexyl)-2-oxoethyl)-1H-pyrazole-5-carboxamide]
31 nM | CC(C)n1nccc1C(=O)N[C@H](C(=O)Nc1cc(C(NC(=O)CCC(F)(F)F)C2CC2)ccn1)[C@H]1CC[C@H](C)CC1 (stereo partly drawn) [Example 106, N-((1S)-2-((4-(cyclopropyl(4,4,4-trifluorobutanamido)methyl)pyridin-2-yl)amino)-1-((1r,4S)-4-methylcyclohexyl)-2-oxoethyl)-1-isopropyl-1H-pyrazole-5-carboxamide]
90 nM | COC[C@H](c1ccnc(NC(=O)[C@@H](NC(=O)c2ccnn2C(C)C)C2CCC(F)(F)CC2)c1)N1C[C@@H](C(F)(F)F)NC1=O [Example 203, N-((S)-1-(4,4-difluorocyclohexyl)-2-((4-((S)-2-methoxy-1-((S)-2-oxo-4-(trifluoromethyl)imidazolidin-1-yl)ethyl)pyridin-2-yl)amino)-2-oxoethyl)-1-isopropyl-1H-pyrazole-5-carboxamide]
11 nM | COCC(c1ccnc(NC(=O)[C@@H](NC(=O)c2conc2C(C)C)[C@H]2CC[C@H](C)CC2)c1)N1C[C@@H](C(F)(F)F)NC1=O (single isomer, unassigned) [Example 89]
381 nM | COCC(c1ccnc(NC(=O)[C@@H](NC(=O)c2nccn2C)[C@H]2CC[C@H](C)CC2)c1)N1C[C@@H](C(F)(F)F)NC1=O (single isomer, unassigned) [Example 112]
183 nM | O=C(N[C@H](C(=O)Nc1cc(CN2C[C@@H](C(F)(F)F)NC2=O)ccn1)C1CCC(F)(F)CC1)c1conc1C1CC1 [Example 20, 3-cyclopropyl-N-((S)-1-(4,4-difluorocyclohexyl)-2-oxo-2-((4-(((S)-2-oxo-4-(trifluoromethyl)-imidazolidin-1-yl)methyl)-pyridin-2-yl)amino)ethyl)-isoxazole-4-carboxamide]
58 nM | COC[C@H](c1ccnc(NC(=O)[C@@H](NC(=O)C(F)(F)c2cccc(C#N)c2)[C@H]2CC[C@H](C)CC2)c1)N1C[C@@H](C(F)(F)F)NC1=O (relative stereo) [Example 247, 2-(3-Cyanophenyl)-2,2-difluoro-N—((S)-2-((4-((S)-2-methoxy-1-((S)-2-oxo-4-(trifluoromethyl)imidazolidin-1-yl)ethyl)pyridin-2-yl)amino)-1-((1r,4S)-4-methylcyclohexyl)-2-oxoethyl)acetamide]
630 nM | Cn1nccc1C(=O)NC(C(=O)Nc1cc(C(NC(=O)CCC(F)(F)F)C2CC2)ccn1)C1CCC(F)(F)CC1 (centres unmarked) [Example 47, N-(2-((4-(cyclopropyl(4,4,4-trifluorobutanamido)methyl)pyridin-2-yl)amino)-1-(4,4-difluorocyclohexyl)-2-oxoethyl)-1-methyl-1H-pyrazole-5-carboxamide]
18 nM | CCC[C@H](c1ccnc(NC(=O)C(NC(=O)c2nocc2CC)C2CCC(F)(F)CC2)c1)N1C[C@@H](C(F)(F)F)NC1=O (stereo in doubt) [Example 158, N—((S)-1-(4,4-difluorocyclohexyl)-2-oxo-2-((4-((R)-1-((S)-2-oxo-4-(trifluoromethyl)imidazolidin-1-yl)butyl)pyridin-2-yl)amino)ethyl)-4-ethylisoxazole-3-carboxamide]
109 nM | COC[C@H](c1ccnc(NC(=O)[C@@H](NC(=O)c2conc2C)C2CCC(Cl)CC2)c1)N1C[C@@H](C(F)(F)F)NC1=O (stereo partly drawn) [Example 313, N-((1S)-1-(4-chlorocyclohexyl)-2-((4-((S)-2-methoxy-1-((S)-2-oxo-4-(trifluoromethyl)imidazolidin-1-yl)ethyl)pyridin-2-yl)amino)-2-oxoethyl)-3-methylisoxazole-4-carboxamide]
2620 nM | CC(C)(C)OC(=O)N[C@H](C(=O)Nc1cc(C(NC(=O)CCC(F)(F)F)C2CC2)ccn1)C1CCC(F)(F)CC1 (single isomer, unassigned) [Example 74]
96 nM | O=C(CCC(F)(F)F)NC(c1ccnc(NC(=O)[C@@H](NC(=O)c2nonc2C2CC2)C2CCC(F)(F)CC2)c1)C1CC1 (stereo partly drawn) [Example 96, 4-Cyclopropyl-N-((1S)-2-((4-(cyclopropyl(4,4,4-trifluorobutanamido)-methyl)pyridin-2-yl)amino)-1-(4,4-difluorocyclohexyl)-2-oxoethyl)-1,2,5-oxadiazole-3-carboxamide]
